According to US20030228672A1, “Sorbitol dehydrogenases of ketogulonigenium species, genes and methods of use thereof” (priority 2002, published 2003):

Key:
[1] = tested on: purified SDH of Ketogulonigenium sp. ADM 291-19; assay: Substrate specificity of purified SDH, PMS-DCIP method; format: biochemical; conditions: 1-Propanol = 100
Procedure: The dehydrogenase enzyme activity was assayed spectrophotometrically using 2,6-dichlorophenol indophenol (DCIP) as an artificial electron acceptor and phenazine methosulphate (PMS) as an electron mediator. […] The rate of decrease in absorbance at 522 nm was determined. One unit of enzyme activity was defined as the amount of enzyme catalyzing reduction of 1 μmol of DCIP per minute.
(§1) First, the periplasmic proteins from the cells of K. robustum ADM X6L and Ketogulonigenium sp. ADM 291-19 obtained in Step 1 of Example 1 were prepared by osmotic shock fractionation as described in Step 3 of Example 1. About 50 ml of osmotic shock fluid containing periplasmic proteins was loaded onto a DEAE-TSK 650 (S) (Merck) column (2.5×15 cm) previously equilibrated with 10 mM Tris·HCl buffer (pH 8.0). The column was first washed with 80 ml of 10 mM Tris·HCl buffer (pH 8.0) containing 0.1 M NaCl, followed by a gradient elution with 600 ml of the same buffer containing 0.1-0.5 M NaCl. Fractions containing 5 ml of eluant were collected and assayed for the SDH enzyme activities with D-sorbitol, L-sorbose and glyoxal as substrate. […] At about 0.15 M NaCl, eluted red fractions that probably contained cytochrome c.
(§2) Active fractions eluted from DEAE column were pooled and further purified by gel filtration column chromatography. The active fractions were concentrated by about 20 fold with ultrafiltration in Centricon 30 (Amicon). The concentrate was loaded onto Superose 12 (Pharmacia) and eluted isocratically with 50 mM sodium phosphate buffer (pH 7.0) containing 0.15 M NaCl.
(§3) The purified enzymes were active toward D-sorbitol, L-sorbose and glyoxal.

[2] = tested on: purified SDH of K. robustum ADM X6L; assay: as above; format: biochemical, Ketogulonigenium robustum ADM X6L; conditions: 1-Propanol = 100
Procedure: (§4) The dehydrogenase enzyme activity was assayed spectrophotometrically using 2,6-dichlorophenol indophenol (DCIP) as an artificial electron acceptor and phenazine methosulphate (PMS) as an electron mediator. The reaction mixture contained 50 mM Tris·HCl buffer (pH 8.0), 10 mM MgCl2, 5 mM CaCl2, 5 mM KCN, 0.1 mM PMS, 0.12 mM DCIP, a substrate as D-sorbitol (250 mM), L-sorbose (250 mM) or glyoxal (50 mM) and enzyme solution in a total volumn of 1.0 ml. The rate of decrease in absorbance at 522 nm was determined. One unit of enzyme activity was defined as the amount of enzyme catalyzing reduction of 1 μmol of DCIP per minute.
as §1, §2, §3

[3] = tested on: dehydrogenase enzyme activity (SDH) of K. robustum ADM X6L; assay: Enzyme activity in cellular fractions, Ferric-Dupanol method (localization); format: biochemical, Ketogulonigenium robustum ADM X6L
Procedure: (§5) Cells were harvested by centrifugation at 12,000 g for 10 min, washed once with 10 mM Tris·HCl buffer (pH 8.0) and disrupted by sonication in a Branson Sonifier 450 for 15 min at 50% duty cycle in ice. The homogenate thus prepared was centrifuged at 12,000 g for 5 min to remove the cell debris. The resulting supernatant was centrifuged at 100,000 g for 90 min to get the supernatant as soluble fraction and the precipitate as crude membrane fraction. The crude membrane fraction was solubilized with 1.5% n-octyl glucoside by stirring for 2 hours at 4° C. The resultant suspension was centrifuged at 12,000 g for 10 min to give a supernatant, designated as solubilized membrane fraction.
(§6) Enzyme activity was determined also by the Ferric-Dupanol method (Wood, W. A. et al., Meth. Enzymol., 5, 287 (1962)). The enzyme was preincubated for 5 min at 25° C. The reaction was started by addition of 10 mM (final conc.) potassium ferricyanide and 250 mM (final conc.) D-sorbitol, L-sorbose, or glyoxal. After an appropriate time, the reaction was stopped by adding the ferric sulfate-Dupanol solution (Fe2(SO4)3.nH2O 5 g/l, Dupanol (sodium lauryl sulfate) 3 g/l and 85% phosphoric acid 95 ml/l) and the absorbance of the Prussian color developed was determined at 660 nm in a spectrophotometer.
(§7) Enzyme activities towards D-sorbitol, L-sorbose and glyoxal in different cellular fractions were determined for enzyme localization in K. robustum ADM X6L and Ketogulonigenium sp. ADM 291-19. In both cases, most of the enzyme activity detected in crude cell extract was found in the soluble fraction and the activity in solubilized membrane fraction was negligible when assayed with Ferric-Dupanol method.

[4] = tested on: purified SDH enzymes; assay: Activity of the purified SDH enzymes toward substrates; format: biochemical, K. robustum ADM X6L and Ketogulonigenium sp. ADM 291-19; conditions: purified SDH enzymes of both strains
Procedure: as §1, §2, §3

[5] = tested on: dehydrogenase enzyme activity (SDH) of Ketogulonigenium sp. ADM 291-19; assay: Enzyme activity in cellular fractions, Ferric-Dupanol method (localization); format: biochemical
Procedure: as §5, §6, §7

[6] = tested on: SDH; assay: SDH activities in osmotic shock fractions, PMS-DCIP method; format: biochemical
Procedure: For more detailed localization study, periplasmic fraction was enriched by the method of osmotic shock (Neu, H. C. and Heppel, L. A., J. Biol. Chem., 240:3685 (1965)). Wet cells were resuspended at about 0.1 g/ml in 20% sucrose-0.03 M Tris·HCl buffer (pH 8.0) at room temperature. Di-sodium EDTA was added to 1 mM and the flask was shaken at 180 rpm at room temperature for 10 min. After centrifugation at 16,000 g for 20 min at 4° C., the supernatant was removed and the pellet was rapidly mixed with cold distilled water of the same volume as the original cell suspension and shaken in ice bucket in a shaker for 10 min. The mixture was centrifuged again to obtain the supernatant called “osmotic shock fluid”. The pellet was sonicated in the same buffer, centrifuged and the supernatant was obtained as “pellet sonicate”.
as §4
For further localization of the enzymes to periplasm or cytoplasm, periplasm was enriched by osmotic shock method as described in Step 3 of Example 1. In this method, the Tris-Sucrose wash and the osmotic shock fluid represent the periplasmic fraction and the pellet sonicate represents the cytoplasm and the cytoplasmic membrane. […] The remaining activity in pellet sonicate could be due to the incomplete release of periplasm by osmotic shock. Typical enzyme activity assay for SDH and β-galactosidase for fractions obtained by osmotic shock fractionation is shown in Table 3.

[7] = tested on: K. robustum ADM X6L transformants; assay: Bioconversion of D-sorbitol by transformants, HPLC of culture supernatant; format: cell-based, Ketogulonigenium robustum ADM X6L; conditions: for improvement of L-sorbose production from D-sorbitol upon overexpression: flask scale experiment, versus pXH2 control; for L-sorbose production from D-sorbitol upon overexpression (in words): flask scale experiments
Procedure: For expression of the three SDH genes in K. robustum strains, the genes with their own promoters were subcloned into the vector, pXH2/K5. These plasmids were transformed into the strains, K. robustum ADM X6L and 86-96 (NRRL B-21630), by electroporation. In this case, gene dosage effect may be expected due to the apparent high copy number of the plasmid pXH2/K5. The transformants were analyzed by HPLC for improved conversion activity upon overexpression of each SDH gene using D-sorbitol and L-sorbose as substrate.
The effect of overexpression of the three SDH genes in bioconversion activity was analyzed by HPLC analysis of the product profile of the culture supernatant of transformants in a medium containing D-sorbitol or L-sorbose as substrate. The transformants were cultivated overnight in RM medium containing 20 μg/ml of Kanamycin. This overnight culture was used to inoculate the 25 ml RM medium (supplemented with 20 μg/ml of Kanamycin) containing 20 g/l of D-sorbitol or 20 g/l of L-sorbose as substrate instead of mannitol. The culture supernatant samples were taken in a 12-hour interval and were analyzed by HPLC (Gilson HPLC with RI detector (ERC-7515A, ERC Inc.)) equipped with Asted XL automatic sample injector. Samples were loaded on two 2 mm×300 mm×7.8 mm Aminex HPX-87H columns (BioRad) arranged in series to provide a total column length of 600 mm. The column was run at 50° C. at a flow rate of 0.5 ml/min. The peaks were identified and the concentration was determined by comparison with those of the standards using glycerol as internal standard.
K. robustum ADM X6L transformants harboring the pXSDH1, pXSDH2 or pXSDH3 were cultivated with D-sorbitol or L-sorbose as substrate. HPLC analysis of the products from D-sorbitol (Table 10) or L-sorbose (Table 11) is shown below. A transformant harboring pXH2 served as control.

O=C(CO)[C@@H](O)[C@H](O)[C@H](O)CO [D-Fructose]
% relative activity, ADM291-19 ([1]; substrate 250 mM): 11.7% | % relative activity, ADM X6L ([2]; substrate 250 mM): 8.0%

OC[C@@H](O)[C@@H](O)[C@H](O)[C@@H](O)CO [D-sorbitol]
% relative activity, ADM291-19 ([1]; substrate 250 mM): 12.4% | enzyme activity, Cell Free Extract ([3]; Cell Free Extract): 0.92 ΔOD/min/4 μl enzyme | enzyme activity, Membrane Fraction ([3]; Membrane Fraction): 0.01 ΔOD/min/4 μl enzyme | enzyme activity, Soluble Fraction ([3]; Soluble Fraction): 0.90 ΔOD/min/4 μl enzyme | activity of the purified enzymes toward the substrate (in words) [4]: active | enzyme activity, Cell Free Extract ([5]; Cell Free Extract): 0.66 ΔOD/min/2 μl enzyme | enzyme activity, Membrane Fraction ([5]; Membrane Fraction): 0.00 ΔOD/min/2 μl enzyme | enzyme activity, Soluble Fraction ([5]; Soluble Fraction): 0.65 ΔOD/min/2 μl enzyme | % relative activity, ADM X6L ([2]; substrate 250 mM): 12.6% | SDH activity, Osmotic Shock Fluid ([6]; Osmotic Shock Fluid (periplasmic fraction)): 0.45 ΔOD/min/50 μl enzyme | SDH activity, Pellet Sonicate ([6]; Pellet Sonicate (cytoplasm and cytoplasmic membrane)): 0.68 ΔOD/min/50 μl enzyme | SDH activity, Tris-Sucrose Wash ([6]; Tris-Sucrose Wash (periplasmic fraction)): 0.31 ΔOD/min/50 μl enzyme

OC[C@@H](O)[C@@H](O)[C@H](O)[C@H](O)CO [D-Mannitol]
% relative activity, ADM291-19 ([1]; substrate 100 mM): 0% | % relative activity, ADM X6L ([2]; substrate 100 mM): 26.6%

CCCO [1-Propanol]
% relative activity, ADM291-19 ([1]; substrate 50 mM): 100% | % relative activity, ADM X6L ([2]; substrate 50 mM): 100%

O=C(O)[C@H](O)[C@@H](O)[C@H](O)[C@H](O)CO [D-Gluconate]
% relative activity, ADM291-19 ([1]; substrate 250 mM): 20.0% | % relative activity, ADM X6L ([2]; substrate 250 mM): 30.6%

CCO [Ethanol]
% relative activity, ADM291-19 ([1]; substrate 50 mM): 38.0% | % relative activity, ADM X6L ([2]; substrate 50 mM): 20.0%

O=C[C@H](O)[C@@H](O)[C@H](O)[C@H](O)CO [D-Glucose]
% relative activity, ADM291-19 ([1]; substrate 250 mM): 20.0% | % relative activity, ADM X6L ([2]; substrate 250 mM): 27.6%

OCC(O)CO [Glycerol]
% relative activity, ADM291-19 ([1]; substrate 250 mM): 32.5% | % relative activity, ADM X6L ([2]; substrate 250 mM): 56.5%

B1: SDH1: sorbitol dehydrogenase of K. robustum ADM 86-96, 578 amino acids (SEQ ID NO:5) (protein, listed as Ketogulonigenium sp.)
chain: MKSNSLLLASVAAVAFFAVPAFADVTPVTDELLANPPAGEWISYGRNQENYRHSPLNQITPDNVGQLQLVWARGMNPGVVQVTPLIHDGVMYLANPGDIIQAIDAKTGDLIWEHRRQLPETSTLSSLGDRKRGIALYGTNVYFVSWDNHMVALDAASGQVVFDVDRGQGDERVSNSSGPIVANGVIVAGSTCQYSPFGCFVSGHDASTGEELWRNYFIPQAGEEGDETWGNDYEARWMTGVWGQITYDPTTNLVFYGSSAVGPASEVQRGTPGGTLYGTNTRFAVRPDTGEVVWRHQTLPRDNWDQECTFEMMVANVDVQPAADMDGVQAINPNAATGERRVLTGVPCKTGTMWQFDAETGEFLWARDTNYQNMISSIDETGLVTVNEDIILKDLDTDYRICPTFLGGRDWPSASLNPDSGIYFIPLNNACADLAAVDQEFTAMDVYNTSATYLLAPEKENMGRIDAIDISTGKTLWSVERLASNYSPVLSTAGGVLFNGGSDRYFRALSEETGETLWQTRLATVASGQAISYELDGVQYVAIAGGGNTYGTNLNSNIGATIDSTSIGNAVYVFALPQ
improvement of L-sorbose production from D-sorbitol upon overexpression [7]: ~2 times | L-sorbose production from D-sorbitol upon overexpression (in words) [7]: significantly improved

B2: SDH3: sorbitol dehydrogenase of K. robustum ADM 86-96, 580 amino acids (SEQ ID NO:8) (protein, listed as Ketogulonigenium sp.)
chain: MRPTTLLRTSAAVLLLGPIPAFAQVTPITDELLANPPAGEWINYGRNQENYRHSPLEQITTDNVGQLQLVWARGMEAGAVQVTPMIHDGVMYLANPGDVIQAIDAKTGDLMWEHRRQLPPVASLNGQGDRKRGVALYGTNLYFTSWDNHLVALDMATGQVVFDVERGSGDDGLTSNTSGPIVANGVIVAGSTCQYSPYGCFVSGHDPASGEELWRNYFIPQAGEEGDETWGNDFESRWMTGVWGQLTYDPVTNLVHYGSTGVGPASETQRGTPGGTLYGTNTRFAVRPDTGEIVWRHQTLPRDNWDQECTFEMMVANVDVQPAADMDGVQAINPNATTGERRVLTGIPCKTGTMWQFDAETGEFLWARDTNYQNLIASIDETGLVTVNEDSVLTQLDTDYDICPTFLGGRDWPSAALNPDSGIYFIPLNNACVDIMAVDQEFSALDVYNTSASYKLAPGFENMGRIDAIDISTGKTLWSAERLASNYSPVLSTAGGVLFNGGTDRYLRALSQETGETLWQTRLASVATGQAISYEIDGTQYVAIAGGGSTYGTNQNRALSEAIDSTTIGNAVYVFALPQQ
improvement of L-sorbose production from D-sorbitol upon overexpression [7]: ~3 times | L-sorbose production from D-sorbitol upon overexpression (in words) [7]: significantly improved
